From patent US20250034216A1, “STEREOSELECTIVE COVALENT LIGANDS FOR ONCOGENIC AND IMMUNOLOGICAL PROTEINS” (The Scripps Research Institute, priority 2021, published 2025)

Tests used:
Test in all cases: IA-DTB cysteine engagement
Format in all cases: binding
[1] = molecular target: T1, PDP1_C149 (Homo sapiens, UniProt Q9P0J1); conditions: 22Rv1 cells, 20 μM probe, 1 h, relative to DMSO
T1 construct: endogenous in cells; host or cells: 22Rv1
T1 sequence (Q9P0J1 72-537): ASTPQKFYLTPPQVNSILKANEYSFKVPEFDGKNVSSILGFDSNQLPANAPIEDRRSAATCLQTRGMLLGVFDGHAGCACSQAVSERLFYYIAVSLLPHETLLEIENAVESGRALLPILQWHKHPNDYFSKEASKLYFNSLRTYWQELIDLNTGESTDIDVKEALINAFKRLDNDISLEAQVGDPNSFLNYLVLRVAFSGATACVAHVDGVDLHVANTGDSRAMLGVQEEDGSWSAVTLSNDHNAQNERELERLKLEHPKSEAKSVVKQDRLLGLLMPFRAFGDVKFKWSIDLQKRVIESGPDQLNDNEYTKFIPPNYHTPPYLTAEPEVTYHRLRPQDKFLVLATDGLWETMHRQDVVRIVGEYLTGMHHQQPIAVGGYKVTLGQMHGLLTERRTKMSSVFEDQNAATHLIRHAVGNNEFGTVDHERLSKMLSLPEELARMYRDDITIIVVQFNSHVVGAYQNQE
In short: (§1)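 Read-out is TMT-based cysteine engagement, expressed as each reporter ion intensity divided by the average of the DMSO channels. Before that, probe-treated cell lysates were capped with IA-DTB, digested, enriched on streptavidin and TMT-tagged. PSMs with DMSO summed intensity <10,000 or DMSO CV >0.5 were excluded.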

[2] = molecular target: T2, MRPS30_C204 (Homo sapiens, UniProt Q9NP92); conditions: 22Rv1 cells, 20 μM probe, 1 h, relative to DMSO
T2 construct: endogenous in cells; host or cells: 22Rv1
In short: as §1

[3] = molecular target: T3, NCAPD2_C439 (Homo sapiens, UniProt Q15021); conditions: 1 h, 22Rv1 cells, 20 μM probe, relative to DMSO; for % engagement NCAPD2_C439: 60 min, 20 µM
T3 construct: endogenous in cells; host or cells: 22Rv1
In short: as §1

T3 sequence (Q15021 whole entry): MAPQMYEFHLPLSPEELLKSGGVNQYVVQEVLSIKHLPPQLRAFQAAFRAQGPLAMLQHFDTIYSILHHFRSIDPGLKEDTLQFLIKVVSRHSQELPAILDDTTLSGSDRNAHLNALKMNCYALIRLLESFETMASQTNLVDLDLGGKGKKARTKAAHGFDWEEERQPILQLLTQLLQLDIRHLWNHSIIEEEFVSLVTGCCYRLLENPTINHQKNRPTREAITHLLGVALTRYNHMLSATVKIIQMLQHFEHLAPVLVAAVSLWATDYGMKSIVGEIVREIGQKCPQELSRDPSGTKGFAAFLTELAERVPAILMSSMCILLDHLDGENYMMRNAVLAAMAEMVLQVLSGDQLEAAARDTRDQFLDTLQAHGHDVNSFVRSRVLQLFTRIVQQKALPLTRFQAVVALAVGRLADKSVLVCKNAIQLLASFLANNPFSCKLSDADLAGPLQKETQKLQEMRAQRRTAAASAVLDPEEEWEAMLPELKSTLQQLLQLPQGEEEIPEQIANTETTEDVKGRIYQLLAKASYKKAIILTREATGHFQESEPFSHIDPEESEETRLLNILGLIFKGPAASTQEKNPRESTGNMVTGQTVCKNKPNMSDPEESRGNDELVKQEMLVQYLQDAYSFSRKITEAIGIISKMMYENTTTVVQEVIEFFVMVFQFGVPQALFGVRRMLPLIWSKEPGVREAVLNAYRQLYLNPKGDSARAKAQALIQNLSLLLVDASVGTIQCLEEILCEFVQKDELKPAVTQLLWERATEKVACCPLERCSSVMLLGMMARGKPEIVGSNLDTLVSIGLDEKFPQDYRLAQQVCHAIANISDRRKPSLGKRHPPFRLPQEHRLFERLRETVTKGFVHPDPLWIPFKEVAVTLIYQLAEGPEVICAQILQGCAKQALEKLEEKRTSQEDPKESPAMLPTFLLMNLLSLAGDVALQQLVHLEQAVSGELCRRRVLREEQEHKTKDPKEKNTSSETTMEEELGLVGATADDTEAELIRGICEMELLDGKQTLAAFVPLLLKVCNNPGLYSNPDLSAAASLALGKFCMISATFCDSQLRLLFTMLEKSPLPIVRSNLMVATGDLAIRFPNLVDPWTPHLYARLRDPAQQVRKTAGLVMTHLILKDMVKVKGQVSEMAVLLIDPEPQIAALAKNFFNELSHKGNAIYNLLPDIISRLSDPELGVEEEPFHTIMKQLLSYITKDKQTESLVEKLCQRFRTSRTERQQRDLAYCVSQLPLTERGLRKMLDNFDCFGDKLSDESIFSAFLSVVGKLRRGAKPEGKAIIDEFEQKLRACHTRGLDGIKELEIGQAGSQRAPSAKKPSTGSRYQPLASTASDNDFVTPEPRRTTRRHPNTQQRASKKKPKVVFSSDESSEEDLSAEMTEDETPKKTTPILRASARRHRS

| Structure (SMILES) | % engagement PDP1_C149 [1] | % engagement MRPS30_C204 [2] | inhibition at 20 µM [3] | % engagement NCAPD2_C439 [3] |
| --- | --- | --- | --- | --- |
| C=CC(=O)N1C[C@@H](c2ccc(Br)cc2)[C@H]1C(=O)Nc1cccc2cccnc12 [MY-1A, (2S,3R)-1-acryloyl-3-(4-bromophenyl)-N-(quinolin-8-yl)azetidine-2-carboxamide] | 67% | 74.5% | 29.5% | – |
| C=CC(=O)N1C[C@H](c2ccc(Br)cc2)[C@@H]1C(=O)Nc1cccc2cccnc12 [MY-1B, (2R,3S)-1-acryloyl-3-(4-bromophenyl)-N-(quinolin-8-yl)azetidine-2-carboxamide] | 37.25% | −37% | 20% | – |
| C=CC(=O)N1C[C@H](c2ccc(Br)cc2)[C@H]1C(=O)Nc1cccc2cccnc12 [MY-3A, (2S,3S)-1-acryloyl-3-(4-bromophenyl)-N-(quinolin-8-yl)azetidine-2-carboxamide] | 19.25% | 1% | – | 21.5% |
| C=CC(=O)N1C[C@H](c2ccc(Br)cc2)[C@H]1C(=O)Nc1cccc2cccnc12 [MY-3B, (2S,3S)-1-acryloyl-3-(4-bromophenyl)-N-(quinolin-8-yl)azetidine-2-carboxamide] | 37.25% | −41.5% | – | 80% |
